Species on record: Rattus norvegicus
Assay: Open TG-GATES - Regimen: Daily Repeat
Assay type: toxicity, organism-based, Sprague-Dawley
Parameters: regimen Daily Repeat, gender Male, age 6 weeks
Details: in vivo, po, route gavage; for Bas / Eos / Fbg / MCHC / Neu / Plat / RBC / Ret / WBC / Lym / MCH / MCV / Mono: tissue Blood; for KIDNEY_L / KIDNEY_R / KIDNEY_TOTAL: tissue Kidney; for LIVER: tissue Liver
[1] = 0 mg/kg, 72 h, dose level Control, time 3 day
[2] = 0 mg/kg, 72 h, tissue Plasma, dose level Control, time 3 day
[3] = 0 mg/kg, […], dose level Control, time 14 day
[4] = 0 mg/kg, […], dose level Control, time 28 day
[5] = 0 mg/kg, […], tissue Plasma, dose level Control, time 14 day
[6] = 0 mg/kg, […], tissue Plasma, dose level Control, time 28 day
[7] = 1 mg/kg, 72 h, dose level Low, time 3 day
[8] = 1 mg/kg, 72 h, tissue Plasma, dose level Low, time 3 day
[9] = 1 mg/kg, […], dose level Low, time 14 day
[10] = 1 mg/kg, […], dose level Low, time 28 day
[11] = 1 mg/kg, […], tissue Plasma, dose level Low, time 14 day
[12] = 1 mg/kg, […], tissue Plasma, dose level Low, time 28 day

## O=C(O)Cc1ccccc1Nc1c(Cl)cccc1Cl [DICLOFENAC]
[1]
  TERMINAL_BW: 237.4 g
  Bas: 0%
  Eos: 1%
  Fbg: 222.6 mg/dL
  MCHC: 34.5%
  Neu: 21%
  Plat: 120.1 x10_4/uL
  RBC: 626.6 x10_4/ul
  Ret: 4.9%
  WBC: 105.4 x10_2/uL
  KIDNEY_L: 1 g
  KIDNEY_R: 1 g
  KIDNEY_TOTAL: 2 g
[2]
  ALP: 974.8 IU/L
  AST: 65 IU/L
  CRE: 0.4 mg/dL
  DBIL: 0.1 mg/dL
  GLC: 193 mg/dL
  IP: 7.8 mg/dL
  LDH: 163.8 IU/L
  PL: 160.6 mg/dL
  TBIL: 0.2 mg/dL
  TC: 74 mg/dL
  TG: 141 mg/dL
  TP: 5.6 g/dL
  gamma-GTP: 1.2 IU/L
[3]
  TERMINAL_BW: 317.2 g
  Bas: 0%
  Eos: 0.8%
  Fbg: 221.6 mg/dL
  Lym: 80.8%
  MCH: 21.5 pg
  MCHC: 35.9%
  MCV: 59.9 fL
  Mono: 2%
  Plat: 106.7 x10_4/uL
  Ret: 4%
  WBC: 92.1 x10_2/uL
  KIDNEY_L: 1.3 g
  KIDNEY_R: 1.3 g
  KIDNEY_TOTAL: 2.6 g
[4]
  TERMINAL_BW: 396.3 g
  Bas: 0%
  Fbg: 219.8 mg/dL
  Lym: 84.2%
  MCH: 20.1 pg
  MCHC: 36.1%
  MCV: 55.9 fL
  Neu: 11.4%
  Plat: 102.6 x10_4/uL
  RBC: 801.6 x10_4/ul
  Ret: 2.3%
  WBC: 127.9 x10_2/uL
  KIDNEY_L: 1.4 g
  KIDNEY_R: 1.4 g
  KIDNEY_TOTAL: 2.8 g
  LIVER: 15.7 g
[5]
  ALP: 720.8 IU/L
  ALT: 31.2 IU/L
  CRE: 0.4 mg/dL
  DBIL: 0.1 mg/dL
  GLC: 220.2 mg/dL
  IP: 7.2 mg/dL
  K: 3.7 meq/L
  LDH: 170 IU/L
  Na: 140.2 meq/L
  PL: 143.8 mg/dL
  RALB: 3.4 g/dL
  TBIL: 0.2 mg/dL
  TC: 64.2 mg/dL
  TP: 6 g/dL
  gamma-GTP: 1 IU/L
[6]
  ALP: 600.6 IU/L
  AST: 57 IU/L
  CRE: 0.5 mg/dL
  Ca: 10.3 mg/dL
  Cl: 101.8 meq/L
  DBIL: 0.1 mg/dL
  GLC: 240.8 mg/dL
  IP: 6.5 mg/dL
  K: 3.5 meq/L
  LDH: 146.4 IU/L
  Na: 140.4 meq/L
  PL: 151.4 mg/dL
  RALB: 3.6 g/dL
  TBIL: 0.2 mg/dL
  TC: 68.8 mg/dL
  TG: 145.6 mg/dL
  TP: 6.3 g/dL
  gamma-GTP: 0.8 IU/L
[7]
  TERMINAL_BW: 235.7 g
  Bas: 0%
  Eos: 1%
  Fbg: 217.6 mg/dL
  Mono: 3.4%
  Plat: 125.8 x10_4/uL
  RBC: 633.8 x10_4/ul
  Ret: 5%
  WBC: 89.1 x10_2/uL
  KIDNEY_L: 1 g
  KIDNEY_R: 1 g
  KIDNEY_TOTAL: 2.1 g
  LIVER: 11 g
[8]
  ALP: 1075.6 IU/L
  AST: 66 IU/L
  CRE: 0.4 mg/dL
  DBIL: 0.1 mg/dL
  GLC: 190 mg/dL
  LDH: 173.4 IU/L
  PL: 164.2 mg/dL
  TBIL: 0.2 mg/dL
  TC: 75.8 mg/dL
  TP: 5.7 g/dL
  gamma-GTP: 1 IU/L
[9]
  TERMINAL_BW: 319.9 g
  Bas: 0%
  Eos: 1%
  Fbg: 224.4 mg/dL
  Lym: 78.4%
  MCHC: 35.7%
  Plat: 114.5 x10_4/uL
  RBC: 699 x10_4/ul
  Ret: 3.8%
  WBC: 100.3 x10_2/uL
  KIDNEY_L: 1.3 g
  KIDNEY_R: 1.3 g
  KIDNEY_TOTAL: 2.6 g
[10]
  TERMINAL_BW: 385.2 g
  Bas: 0%
  Eos: 1.4%
  Lym: 80%
  MCH: 20.1 pg
  MCHC: 36.1%
  MCV: 55.6 fL
  Neu: 15.4%
  Plat: 108.4 x10_4/uL
  RBC: 796.2 x10_4/ul
  Ret: 1.8%
  WBC: 95.4 x10_2/uL
  KIDNEY_L: 1.4 g
  KIDNEY_R: 1.4 g
  KIDNEY_TOTAL: 2.8 g
  LIVER: 14.8 g
[11]
  ALP: 890.6 IU/L
  ALT: 35.2 IU/L
  AST: 66.2 IU/L
  CRE: 0.4 mg/dL
  Ca: 10.6 mg/dL
  DBIL: 0.1 mg/dL
  GLC: 218.4 mg/dL
  IP: 7.8 mg/dL
  K: 3.7 meq/L
  LDH: 192.8 IU/L
  Na: 140.8 meq/L
  PL: 173.4 mg/dL
  RALB: 3.4 g/dL
  TBIL: 0.2 mg/dL
  TC: 81.4 mg/dL
  TG: 151.6 mg/dL
  TP: 5.9 g/dL
  gamma-GTP: 0.4 IU/L
[12]
  ALP: 610.6 IU/L
  ALT: 29.4 IU/L
  AST: 61.4 IU/L
  CRE: 0.4 mg/dL
  DBIL: 0.088 mg/dL
  GLC: 215.8 mg/dL
  IP: 6.7 mg/dL
  K: 3.5 meq/L
  LDH: 165.4 IU/L
  PL: 141.4 mg/dL
  RALB: 3.4 g/dL
  TBIL: 0.2 mg/dL
  TP: 6.2 g/dL
  gamma-GTP: 0.2 IU/L

From ChEMBL document CHEMBL3885861, “Open TG-GATES”
